Test results published in patent US9579407B2, “Radiolabeled compounds and their use as radiotracers for quantitative imaging of phosphodiesterase (PDE10A) in mammals” (TAKEDA PHARMACEUTICAL COMPANY LIMITED, priority 2011, dated 2017).

How the values were obtained:
Human PDE10A enzyme = Human PDE10A enzyme (Homo sapiens (Human), UniProt Q9Y233); experiment: PDE10A enzyme inhibition (SPA, [3H]cGMP); assay type: biochemical; settings: unlabeled compound
Protocol: Many of the compounds within the present invention had activity in inhibiting the human PDE10A enzyme in the aforementioned assay, generally with an […] of less than about 0.1 μM. Such a result is indicative of the intrinsic activity of the compounds in use as inhibitors of the PDE10A enzyme.
Human PDE10A enzyme was generated from Sf9 or COS-7 cells transfected with the full-length gene. Cloned enzyme was extracted from homogenized cell pellets. The extracted enzyme from sf9 cells was partially purified using His-tag affinity column. The enzyme was stored at −70° C. until use. PDE activity was measured using a SPA (Scintillation Proximity Assay) (GE Healthcare). To evaluate the inhibitory activity, 10 μL of serial diluted compounds were incubated with 20 μL of PDE enzyme in assay buffer (50 mM HEPES-NaOH, 8.3 mM MgCl2, 1.7 mM EGTA, 0.1% BSA (pH 7.4)) for 30 min. at room temperature. Final concentration of DMSO in the assay was 1% as compounds were tested in duplicate in 96-well half-area plates (Corning). To start the reaction, 10 μL of substrate [^3H] cGMP (25 or 50 nM; enclosed in SPA kits from GE Healthcare or purchased from PerkinElmer, respectively) was added for a final assay volume of 40 μL. After 60 min incubation at room temperature, yttrium SPA beads containing zinc sulphate were added (20 μL at 6 mg/mL) to terminate the PDE reaction. After being settled for 60 min., assay plates were counted in a scintillation counter (PerkinElmer) to allow calculation of inhibition rate. IC50 values were calculated on the basis of 0% control wells with DMSO and 100% control wells without enzyme.

[1] = system: Human PDE1A, 2A3, 3A, 4D2, 5A1, 6AB, 7B, 8A1, 9A2, and 11A4 enzymes; experiment: PDE family enzyme inhibition selectivity assay (SPA); assay type: biochemical; settings: ratio of IC50 for each PDE other than PDE10A to IC50 for PDE10A
Protocol: The PDE10A IC50 is a measure of the ability of the test compound to inhibit the action of the PDE10A enzyme. To determine the selectivity of the test compounds for PDE10A, the IC50 of the compound was determined for PDEs 1-9, and 11.
Human PDE1A, 3A, 4D2, 5A1, 7B, 8A1, 9A2, and 11A4 enzymes were purchased from BPS Bioscience. Human PDE6AB enzyme was purchased from Scottish Biomedical. Human PDE2A3 was generated from Sf9 transfected with the full-length gene in house. PDE activities were measured using a SPA (Scintillation Proximity Assay) (PerkinElmer). To evaluate the inhibitory activity, 10 μL of serial diluted compounds were incubated with 20 μL of PDE enzyme in assay buffer (50 mM HEPES-NaOH, 8.3 mM MgCl2, 1.7 mM EGTA, 0.1% BSA (pH 7.4)) for 30 min. at room temperature. Final concentration of DMSO in the assay was 1% as compounds were tested in duplicate in 96-well half-area plates (Corning). To start the reaction, 10 μL of substrate [^3H] cGMP (PerkinElmer) for PDE1A, 2A3, 5A1, 6AB, 9A2, and 11A4 or [^3H] cAMP (PerkinElmer) for PDE3A, 4D2, 7B, and 8A1 was added for a final assay volume of 40 μL. After 60 min incubation at room temperature, yttrium SPA beads containing zinc sulphate were added (20 μL at 6 mg/mL) to terminate the PDE reaction. After being settled for 60 min., assay plates were counted in a scintillation counter (PerkinElmer) to allow calculation of inhibition rate. IC50 values were calculated on the basis of 0% control wells with DMSO and 100% control wells without enzyme. Selectivity was defined as the ratio of IC50 for each PDE other than PDE10A to IC50 for PDE10A.

[2] = Plasma metabolite analysis (parent fraction) during PET, [11C]compound; assay type: in vivo, rhesus monkeys; settings: venous plasma, i.v.
Protocol: (§1) PET measurements were performed with the High Resolution Research Tomograph system (HRRT) (Siemens Molecular Imaging) using two rhesus monkeys with body weight of 4450 g and 5000 g. The monkeys were maintained under gas anesthesia of sevoflurane, oxygen, and medical air during PET measurements. 123-min dynamic brain PET data were acquired in List mode after 150 and 162 MBq of [^11C] compound of Example 2 and 159 and 162 MBq of [^11C] compound of Example 3 were injected intravenously. List-mode data were reconstructed using the ordinary Poisson-3D-ordered subset expectation maximization (OP-3D-OSEM) algorithm, with 10 iterations and 16 subsets including modelling of the point spread function (PSF). During PET acquisition, venous blood sampling was performed for the metabolite analysis.
(§2) Regions of interest (ROIs) for Caudate, Putamen, Nucleus Accumbens, Thalamus, Cerebellum, Frontal cortex, Temporal cortex, and whole brain were delineated on MRI/PET coregistered images using PMOD software (v3.1 PMOD Technologies Ltd. Zurich, Switzerland). Time activity curves were generated for these regions. The uptake was expressed as % ID (=total radioactivity in the brain (MBq)*100/injected radioactivity (MBq)) or % SUV (=radioactivity in the region (MBq/cc)*100/(injected radioactivity (MBq)/Body weight (g))). Metabolite fraction in the plasma was measured by a radio LC analysis. The results are shown in FIGS. 3, 4, 5, 6, 7, 8, 9 and 10.

[3] = PET brain uptake (whole brain and regional), [11C]compound; assay type: in vivo, rhesus monkeys; settings: for regional brain uptake: regions of interest on MRI/PET coregistered images; for time at which whole brain uptake decreased to half / time at which whole brain uptake reached peak / whole brain uptake at the peak: i.v.; for time at which whole brain uptake reached peak: 123-min PET; for whole brain uptake at the peak: % ID = total radioactivity in the brain*100/injected radioactivity
Protocol: as §1
(§3) T1-weighted MR images were acquired with an MRI system GE 1.5 T Signa unit (Milwaukee, Wis., USA). The T1 sequence was a 3-D SPGR protocol with the following settings: repetition time (TR) 21 ms, flip angle 35°, FOV 12.8, matrix 256×256×128, 128×1.0 mm slices.
as §2

PDE10A [4] = experiment: PET specific radioligand binding in putamen (PDE10A rich region) vs cerebellum, [11C]compound; assay type: in vivo, rhesus monkeys; settings: for ratio of the specific binding between the uptake in the target region and the uptake in the cerebellum: increased up to, during 123 min PET measurements; for time of peak of specific binding in Putamen: uptake of the putamen minus the cerebellum
Protocol: (§4) Since the compounds of the present invention show efficacy exhibition, they are useful as PET radioligands of PDE10A.
as §1, §2

[5] = Plasma metabolite analysis (parent fraction) during PET, [18F]compound; assay type: in vivo, cynomolgus monkeys; settings: venous plasma, i.v.
Protocol: (§5) PET measurements were performed with the High Resolution Research Tomograph system (HRRT) (Siemens Molecular Imaging) using three cynomolgus monkeys with body weight of 3730 g to 4845 g. The monkeys were maintained under gas anesthesia of sevoflurane, oxygen, and medical air during PET measurements.
(§6) 180-min dynamic brain PET data were acquired in List mode after 148 and 157 MBq of [^18F]compound of Example 119 and 159 and 163 MBq of [^18F]compound of Example 120 were injected intravenously. List-mode data were reconstructed using the ordinary Poisson-3D-ordered subset expectation maximization (OP-3D-OSEM) algorithm, with 10 iterations and 16 subsets including modelling of the point spread function (PSF). During PET acquisition, venous blood sampling was performed for the metabolite analysis.
as §2, with “(v3.2PMOD” for “(v3.1 PMOD”, “13, 14, 15, 16, 17, 18, 19” for “3, 4, 5, 6, 7, 8, 9”, “20.” for “10.”

PDE10A [6] = experiment: PET specific radioligand binding in putamen (PDE10A rich region) vs cerebellum, [18F]compound; assay type: in vivo, cynomolgus monkeys; settings: for ratio of the specific binding between the uptake in the target region and the uptake in the cerebellum: increased up to; for time of peak of specific binding in Putamen: uptake of the putamen minus the cerebellum
Protocol: as §4, §5, §6
as §2, with “(v3.2PMOD” for “(v3.1 PMOD”, “13, 14, 15, 16, 17, 18, 19” for “3, 4, 5, 6, 7, 8, 9”, “20.” for “10.”

[7] = PET brain uptake (whole brain and regional), [18F]compound; assay type: in vivo, cynomolgus monkeys; settings: for regional brain uptake: regions of interest on MRI/PET coregistered images; for time at which whole brain uptake decreased to half / time at which whole brain uptake reached peak / whole brain uptake at the peak: i.v.; for time at which whole brain uptake reached peak: 180-min PET; for whole brain uptake at the peak: % ID = total radioactivity in the brain*100/injected radioactivity
Protocol: as §5, §6, §3
as §2, with “(v3.2PMOD” for “(v3.1 PMOD”, “13, 14, 15, 16, 17, 18, 19” for “3, 4, 5, 6, 7, 8, 9”, “20.” for “10.”

Chain of Human PDE10A enzyme (Q9Y233 267-1055): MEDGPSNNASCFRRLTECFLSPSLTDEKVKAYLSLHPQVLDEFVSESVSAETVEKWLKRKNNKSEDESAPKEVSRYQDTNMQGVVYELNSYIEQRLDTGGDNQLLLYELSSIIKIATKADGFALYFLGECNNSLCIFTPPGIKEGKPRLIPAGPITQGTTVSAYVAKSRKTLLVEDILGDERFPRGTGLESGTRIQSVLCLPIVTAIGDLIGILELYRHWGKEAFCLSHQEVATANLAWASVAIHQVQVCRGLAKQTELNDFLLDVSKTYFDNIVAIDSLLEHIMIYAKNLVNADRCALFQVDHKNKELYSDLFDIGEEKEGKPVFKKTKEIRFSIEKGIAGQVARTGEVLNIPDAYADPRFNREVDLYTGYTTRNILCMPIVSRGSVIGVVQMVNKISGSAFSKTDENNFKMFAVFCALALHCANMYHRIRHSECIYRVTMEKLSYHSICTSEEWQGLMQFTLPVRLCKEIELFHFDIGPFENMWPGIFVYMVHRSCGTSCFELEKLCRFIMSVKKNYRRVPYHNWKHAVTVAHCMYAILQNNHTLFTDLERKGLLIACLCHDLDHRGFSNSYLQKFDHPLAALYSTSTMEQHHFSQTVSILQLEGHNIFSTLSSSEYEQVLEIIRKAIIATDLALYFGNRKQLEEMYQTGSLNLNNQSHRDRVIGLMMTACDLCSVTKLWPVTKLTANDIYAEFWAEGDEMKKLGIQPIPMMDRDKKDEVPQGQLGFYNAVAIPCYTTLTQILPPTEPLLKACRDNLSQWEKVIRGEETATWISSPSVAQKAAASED

For `COc1cn(-c2ccc(N3CC(F)(F)C3)cc2F)nc(-c2ccnn2-c2ccccc2)c1=O` [Reference Example 18, 1-[4-(3,3-Difluoroazetidin-1-yl)-2-fluorophenyl]-5-methoxy-3-(1-phenyl-1H-pyrazol-5-yl)pyridazin-4(1H)-one], the IC50 (Human PDE10A enzyme) was < 1 nM and the “Selectivity over other PDEs” value [1] was >1000-fold.

In the case of `[11CH3]Oc1cn(-c2ccc(C3CCOCC3)cc2F)nc(-c2ccnn2-c2ccccc2)c1=O` [Example 3, 1-[2-Fluoro-4-(tetrahydro-2H-pyran-4-yl)phenyl]-5-[^11C]methoxy-3-(1-phenyl-1H-pyrazol-5-yl)pyridazin-4(1H)-one], the “fraction of parent compound” value ([2]; at 30 min) is reported as 56-57%, the “fraction of parent compound” value ([2]; at 90 min) is reported as 45-53% and the regional brain uptake [3] is reported as “Putamen showed highest uptake, followed by Caudate, Nuclear Accumbens and Thalamus”. For the same molecule, the “time at which whole brain uptake decreased to half” value [3] was 30 min, the “time at which whole brain uptake reached peak” value [3] was 2 min and the “whole brain uptake at the peak” value [3] was 3.3-4.1 % ID. The “ratio of the specific binding between the uptake in the target region and the uptake in the cerebellum” value (shortened to “ratio”) (PDE10A [4]) was “approximately six” and the “time of peak of specific binding in Putamen” value (shortened to “time of peak … in Putamen”) (PDE10A [4]) was 42 min.

For `COc1cn(-c2ccc(C3CCOCC3)cc2F)nc(-c2ccnn2-c2ccccc2)c1=O` [Reference Example 16, 1-[2-Fluoro-4-(tetrahydro-2H-pyran-4-yl)phenyl]-5-methoxy-3-(1-phenyl-1H-pyrazol-5-yl)pyridazin-4(1H)-one], the IC50 (Human PDE10A enzyme) was < 1 nM and the “Selectivity over other PDEs” value [1] was >1000-fold.

With `[2H]C([2H])(F)Oc1cn(-c2ccc(C3CCOCC3)cc2F)nc(-c2ccnn2-c2ccccc2)c1=O` [Example 119, 5-([^18F]fluoro-methyloxy-d2)-1-(2-fluoro-4-(tetrahydro-2H-pyran-4-yl)phenyl)-3-(1-phenyl-1H-pyrazol-5-yl)pyridazin-4(1H)-one] the “fraction of parent compound” value ([5]; at 60 min) was 62-71%, the “fraction of parent compound” value ([5]; at 180 min) was 60-63% and the “ratio” value (PDE10A [6]; during 47-65 min PET measurements) was 3.0-3.9. The “time of peak … in Putamen” value (PDE10A [6]) was 18.5 to 29 min, the regional brain uptake [7] was “Putamen showed highest uptake, followed by Caudate, Nuclear Accumbens and Thalamus” and the “time at which whole brain uptake decreased to half” value [7] was 23 min. The “time at which whole brain uptake reached peak” value [7] was 2.5 min and the “whole brain uptake at the peak” value [7] was 5.2-5.7 % ID.

With `[2H]C([2H])(F)C([2H])([2H])Oc1cn(-c2ccc(C3CCOCC3)cc2F)nc(-c2ccnn2-c2ccccc2)c1=O` [Reference Example 123, 5-(2-Fluoroethoxy-d4)-1-{2-fluoro-4-(tetrahydro-2H-pyran-4-yl)phenyl}-3-(1-phenyl-1H-pyrazol-5-yl)pyridazin-4(1H)-one] the IC50 (Human PDE10A enzyme) was < 10 nM and the “Selectivity over other PDEs” value [1] was >100-fold.

In the case of `[2H]C([2H])(F)C([2H])([2H])Oc1cn(-c2ccc(C3CCOCC3)cc2F)nc(-c2ccnn2-c2ccccc2)c1=O` [Example 120, 5-(2-[^18F]fluoro-ethyloxy-d4)-1-(2-fluoro-4-(tetrahydro-2H-pyran-4-yl)phenyl)-3-(1-phenyl-1H-pyrazol-5-yl)pyridazin-4(1H)-one], the “fraction of parent compound” value ([5]; at 60 min) is reported as 64-74%, the “fraction of parent compound” value ([5]; at 180 min) is reported as 51-72% and the “ratio” value (PDE10A [6]; during 65-75 min PET measurements) is reported as 1.5-1.9. For the same molecule, the “time of peak … in Putamen” value (PDE10A [6]) was 35 to 41 min, the regional brain uptake [7] was “Putamen showed highest uptake, followed by Caudate, Nuclear Accumbens and Thalamus” and the “time at which whole brain uptake decreased to half” value [7] was 23 to 35 min. The “time at which whole brain uptake reached peak” value [7] was 2.5 to 4.5 min and the “whole brain uptake at the peak” value [7] was 3.6 % ID.

In the case of `[2H]C([2H])(F)Oc1cn(-c2ccc(C3CCOCC3)cc2F)nc(-c2ccnn2-c2ccccc2)c1=O` [Reference Example 122, 5-(Fluoromethoxy-d2)-1-{2-fluoro-4-(tetrahydro-2H-pyran-4-yl)phenyl}-3-(1-phenyl-1H-pyrazol-5-yl)pyridazin-4(1H)-one], the IC50 (Human PDE10A enzyme) is reported as < 10 nM and the “Selectivity over other PDEs” value [1] is reported as >1000-fold.

For `[11CH3]Oc1cn(-c2ccc(N3CC(F)(F)C3)cc2F)nc(-c2ccnn2-c2ccccc2)c1=O` [Example 2], the “fraction of parent compound” value ([2]; at 30 min) was 70-76%, the “fraction of parent compound” value ([2]; at 90 min) was 52-58% and the regional brain uptake [3] was “Putamen showed highest uptake, followed by Caudate, Nuclear Accumbens and Thalamus”. For the same molecule, the “time at which whole brain uptake decreased to half” value [3] was 60 to 66 min, the “time at which whole brain uptake reached peak” value [3] was 2.5 to 7.5 min and the “whole brain uptake at the peak” value [3] was 3.3-5.1 % ID. The “ratio” value (PDE10A [4]) was 2.5-2.7 and the “time of peak … in Putamen” value (PDE10A [4]) was 48 min.
